Test system: PANC-1 cells
Experiment: Quantification of F-2,6-P2 in PANC-1 cells
Assay type: cell-based
Conditions: Homo sapiens, PANC-1; read-out: IC50 based on quantification of F-2,6-P2
In short: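 Endogenous PFKFB3/PFKFB4 activity in PANC-1 cells, 18 h serum/glucose starvation in glucose-free DMEM/F12 with 0.25% FBS, then 1 h compound preincubation (50 and 10 μM, or dose response from 50 μM; 0.5% DMSO) at 37 °C. Glucose stimulation for 2 h, NaOH lysis, F-2,6-P2 quantified by Van Schaftingen coupled enzymatic assay against in-house standard.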

IC50 [µM] | SMILES
2.3 | Cc1c(S(=O)(=O)Nc2cccc(C(=O)O)c2)sc2ccc(C(C)C)cc12 [Example 5, 3-{[(5-Isopropyl-3-methyl-1-benzothien-2-yl)sulfonyl]amino}benzoic acid]
10.1 | Cc1c(S(=O)(=O)Nc2cccc(C(=O)O)c2)sc2ccc(Cl)cc12 [Example 38, 3-{[(5-Chloro-3-methyl-1-benzothien-2-yl)sulfonyl]amino}benzoic acid]
